We go through one compound from patent US11478008B2, “Formulations comprising ratfish liver oil or a product of an enzymatic or chemical glycerolysis processing of ratfish liver oil and supercritical rosemary extract and uses thereof” (UNIVERSIDAD AUTÓNOMA DE MADRID, priority 2016, dated 2022).

For this assay, the system named is human pancreatic cancer cell cultures (line MiaPaca-2). The assay can be described thus: MTT cell viability assay, human pancreatic cancer cells MiaPaca-2. In kind it is cell-based. The conditions noted are these: 1%. As to the method:
The antiproliferative activity of the lipid systems (RLO, RLO+MO and GP), formulations with incorporated SRE (RLO+MO+9% SRE and GP+9% SRE) and (digested and non-digested) non-delivered SRE was evaluated in human pancreatic cancer cell cultures (line MiaPaca-2) by means of the MTT method.
Three independent experiments were performed with different cell strains and on different days. The trend observed in terms of the effect of treatments on cell viability was similar in the 3 experiments.
The parameter used to assess the effect of a compound on cell viability is the mean inhibitory concentration (IC50), which is the product concentration inhibiting cell viability by 50%, such that the lower the IC50 of a compound is, the greater its effect will be.
(In general: Tetrazolium dyes change colour on reduction, which living cells bring about.)

For the compound `O=C1CCCC1` [cyclopentanone], the “viability of treated cells” value is reported as “did not change”.
